# Several values for one entry are separate records, joined by “and”; a condition that tells them apart may be missing. Equal values may be shown once.
# Target: T1, P-gp (Mus musculus, UniProt P21447)
# T1 construct: FVB wild-type littermates, which expresses P-gp at their blood-brain barrier (BBB); from tissue; host or cells: blood-brain barrier / brain of FVB wild-type mice, compared with mdr1 a/b (-/-) mice, in vivo
# Assay: In vivo P-gp liability assessment in mdr1 a/b (-/-) and wild type FVB mouse
# Conditions: mdr1 a/b (-/-) vs FVB wild-type mice, 2.5 mg/Kg IV, 5 min post administration, ratio of Cb/Cp
# Experimental: Use of mdr1 (−/−) mouse and its FVB wild-type littermates, which expresses P-gp at their blood-brain barrier (BBB), can distinguish between a test compound of high P-gp liability from one with a more desirable low P-gp liability.
# Test compounds are administered to both the mdr1 a/b (−/−) and the FVB wild-type mice (N=4/strain) intravenously at 2.5 mg/Kg through the tail vein. Plasma and brains are harvested at 5 min post administration. Test compound is extracted from tissue in parallel with calibration curves prepared from age-matched control tissues, then quantitated by LC/MS/MS. The ratio of brain concentration (Cb) to plasma concentration (Cp) is used as a measure of brain penetration according to the following formula: Brain Penetration (P)=Cb/Cp Therefore, a measure of brain penetration in the mdr1 (−/−) mouse relative to that of the wild-type animal represents an assessment of in vivo P-gp efflux, which is analogous to that determine in vitro with MDR1-MDCK cells. Calculations are made according to the following formula: Pmdr1/PFVB=In vivo Efflux
# T1 sequence (P21447 whole entry): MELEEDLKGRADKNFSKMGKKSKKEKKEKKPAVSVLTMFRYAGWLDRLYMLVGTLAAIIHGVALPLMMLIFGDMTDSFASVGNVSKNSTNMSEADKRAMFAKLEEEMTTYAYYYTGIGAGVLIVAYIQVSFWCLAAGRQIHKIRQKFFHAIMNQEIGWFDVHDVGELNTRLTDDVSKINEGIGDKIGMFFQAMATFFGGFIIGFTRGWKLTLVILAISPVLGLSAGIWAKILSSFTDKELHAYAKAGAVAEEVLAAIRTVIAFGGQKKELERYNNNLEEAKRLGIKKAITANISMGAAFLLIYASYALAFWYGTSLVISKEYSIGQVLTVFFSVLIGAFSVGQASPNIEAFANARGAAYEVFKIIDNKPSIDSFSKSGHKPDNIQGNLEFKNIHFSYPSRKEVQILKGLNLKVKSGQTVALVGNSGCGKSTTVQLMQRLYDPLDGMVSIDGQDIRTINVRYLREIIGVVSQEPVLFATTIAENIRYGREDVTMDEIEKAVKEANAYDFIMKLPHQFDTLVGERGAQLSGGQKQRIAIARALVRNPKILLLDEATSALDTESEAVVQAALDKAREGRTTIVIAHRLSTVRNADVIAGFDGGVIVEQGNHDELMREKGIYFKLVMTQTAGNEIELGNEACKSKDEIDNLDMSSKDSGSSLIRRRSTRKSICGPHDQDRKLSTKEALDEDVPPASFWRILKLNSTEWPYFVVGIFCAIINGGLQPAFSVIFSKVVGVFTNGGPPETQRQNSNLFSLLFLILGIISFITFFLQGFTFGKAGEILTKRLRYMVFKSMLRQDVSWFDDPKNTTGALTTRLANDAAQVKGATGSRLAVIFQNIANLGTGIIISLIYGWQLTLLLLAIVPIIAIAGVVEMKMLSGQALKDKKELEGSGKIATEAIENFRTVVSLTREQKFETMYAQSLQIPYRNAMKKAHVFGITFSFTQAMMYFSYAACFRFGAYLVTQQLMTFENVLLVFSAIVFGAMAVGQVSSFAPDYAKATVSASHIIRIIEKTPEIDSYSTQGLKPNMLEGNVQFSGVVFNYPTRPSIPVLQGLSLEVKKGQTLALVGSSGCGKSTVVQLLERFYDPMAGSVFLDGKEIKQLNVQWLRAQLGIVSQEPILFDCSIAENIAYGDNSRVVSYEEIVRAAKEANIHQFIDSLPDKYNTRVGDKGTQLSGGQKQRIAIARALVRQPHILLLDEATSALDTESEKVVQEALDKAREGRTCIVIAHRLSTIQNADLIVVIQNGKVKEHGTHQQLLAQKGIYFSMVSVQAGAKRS
row,in vivo P-gp efflux (Pmdr1/PFVB),Structure (SMILES)
1,1.17,CNCC[C@@H](Oc1ccccc1C)c1ccccc1 [atomoxetine]

# System: not listed separately
# Assay: Brain to plasma ratio (AUC 0-6 h) in female FVB mice
# Assay type: in vivo
# Conditions: 100 mpk dose
row,Brain AUC (0-6 h),Structure (SMILES)
1,28 µM·h,"CC(=O)NC(Cc1cc(F)cc(F)c1)C(O)CNC1(CCCC(C)(C)C)CC1 (stereo not drawn) [Example 3.5, N-(1-(3,5-difluorophenyl)-4-(1-(4,4-dimethylpentyl)cyclopropylamino)-3-hydroxybutan-2-yl)acetamide]"

# Same assay, conditions: mouse, brain and plasma, 100 mg/kg, 100 mpk dose, AUC (0-6 h)
row,Kp,Structure (SMILES)
1,2.1,"CC(=O)NC(Cc1cc(F)cc(F)c1)C(O)CNC1(CCCC(C)(C)C)CC1 (stereo not drawn) [Example 3.5, N-(1-(3,5-difluorophenyl)-4-(1-(4,4-dimethylpentyl)cyclopropylamino)-3-hydroxybutan-2-yl)acetamide]"

# Same assay, conditions: mouse, plasma, 100 mg/kg, 100 mpk dose
row,AUC(0-t),Structure (SMILES)
1,13 µM·h,"CC(=O)NC(Cc1cc(F)cc(F)c1)C(O)CNC1(CCCC(C)(C)C)CC1 (stereo not drawn) [Example 3.5, N-(1-(3,5-difluorophenyl)-4-(1-(4,4-dimethylpentyl)cyclopropylamino)-3-hydroxybutan-2-yl)acetamide]"

# System: beta-secretase versus catD
# Assay: Selectivity of compounds for inhibiting BACE over catD (ratio of IC50 values)
# Assay type: biochemical
# Conditions: each value is an average of four experimental runs; multiple values = more than one experiment
# Experimental: Investigation of potential beta-secretase inhibitors produced compounds with increased selectivity for beta-secretase over other aspartyl proteases such as cathepsin D (catD), cathepsin E (catE), Human Immunodeficiency Viral (HIV) protease, and renin. Selectivity was calculated as a ratio of inhibition (IC50) values in which the inhibition of beta-secretase was compared to the inhibition of other aspartyl proteases.
# The compounds of formula (I) can be selective for beta-secretase versus catD.
# In the following examples, each value is an average of four experimental runs and multiple values for one compound indicate that more than one experiment was conducted.
row,Selectivity IC50 catD/IC50 BACE,Structure (SMILES)
1,> 3.7 and > 3.2,"CC(=O)NC(Cc1cc(F)cc(F)c1)C(O)CNC1(CCC(C)C)C2CCCC21 (stereo not drawn) [Example 3.1, N-(4-(6-isopentylbicyclo[3.1.0]hexan-6-ylamino)-1-(3,5-difluorophenyl)-3-hydroxybutan-2-yl)acetamide]"
2,1.1,"CC(=O)NC(Cc1cc(F)cc(F)c1)C(O)CNC1(CCCC(C)C)CC1 (stereo not drawn) [Example 3.2, N-(1-(3,5-difluorophenyl)-3-hydroxy-4-(1-(4-methylpentyl)cyclopropylamino)butan-2-yl)acetamide]"

# System: not listed separately
# Assay: In vitro permeability across a monolayer of MDCK cells in a transwell device
# Assay type: in vitro ADME, Canine
# Conditions: dog, MDCK, test compound 5 μM, 2 h at 37° C., apical to basolateral, read-out: Permeability Forward A > B
# Experimental: (§1) Compounds were evaluated for permeability across a monolayer of Madin-Darby Canine Kidney (MDCK) cells in a transwell device following culturing for 4 days. Cells were grown in Dulbecco's Modified Eagle Media with Glutamax (Invitrogen Cat #10569-010) with 10% Heat Inactivated Fetal Bovine Serum (media kitchen) and Penicillin/streptomycin 40 units/mL (media kitchen) at 37° C. and 5% CO2, and were plated into 12 mm diameter transwell plates (12 wells/plate, Costar Cat#3401). A 0.5 mL of cell suspension (400,000 cells/mL) was placed on membrane and a 1.5 mL media in the bottom wells on day 1. On day 2 and day 3, cells were fed with new media. On day 4, the lower chambers were filled with modified Hank's Balanced Salt Solution (mHBSS, media kitchen) with or without 5 μM Cyclosporin A (CspA, Sigma Cat#C-3662). Media was removed from upper chambers and filled with mHBSS with or without CspA, and incubated 30 min at 37° C. with light shaking. Donor chambers were emptied, and filled with test compound at 5 μM in mHBSS. Lucifer Yellow (100 μM, LY, Sigma Cat#L-0144) was added to all of the upper chambers to test for monolayer integrity (tight junctions). Plates were incubated for 2 h at 37° C. with shaking. After 2 h, both the donor and receiver wells were sampled. The bottom chambers were read in a fluorometer to assess LY leakage, and then the media from all wells were assayed by LC/MS/MS to determine compound levels.
row,"Papp A→B at 2 h, 5 μM",Structure (SMILES)
1,8.18 ×10⁻⁶ cm/s,"CC(=O)NC(Cc1cc(F)cc(F)c1)C(O)CNC1(CCOCC(C)(C)C)CC1C (single isomer, unassigned) [Example 3.7, N-(4-(2-methyl-1-(2-(neopentyloxy)ethyl)cyclopropylamino)-1-(3,5-difluorophenyl)-3-hydroxybutan-2-yl)acetamide]"
2,4.33 ×10⁻⁶ cm/s,"CC(=O)NC(Cc1cc(F)cc(F)c1)C(O)CNC1(CCCC(C)C)CC1 (stereo not drawn) [Example 3.2, N-(1-(3,5-difluorophenyl)-3-hydroxy-4-(1-(4-methylpentyl)cyclopropylamino)butan-2-yl)acetamide]"
3,10.1 ×10⁻⁶ cm/s,"CC(=O)NC(Cc1cc(F)cc(F)c1)C(O)CNC1(CSCC(C)(C)C)CC1 (stereo not drawn) [Example 3.3, N-(4-(1-((neopentylthio)methyl)cyclopropylamino)-1-(3,5-difluorophenyl)-3-hydroxybutan-2-yl)acetamide]"
4,3.33 ×10⁻⁶ cm/s,"CC(=O)NC(Cc1cc(F)cc(F)c1)C(O)CNC1(C(=O)NCCC(C)(C)C)CC1 (stereo not drawn) [Example 3.4, 1-(3-acetamido-4-(3,5-difluorophenyl)-2-hydroxybutylamino)-N-(3,3-dimethylbutyl)cyclopropanecarboxamide]"
5,4.31 ×10⁻⁶ cm/s,"CC(=O)NC(Cc1cc(F)cc(F)c1)C(O)CNC1(Cc2cn(CC(C)(C)C)nn2)CC1 (stereo not drawn) [Example 3.6, N-(1-(3,5-difluorophenyl)-3-hydroxy-4-(1-((1-neopentyl-1H-1,2,3-triazol-4-yl)methyl)cyclopropylamino)butan-2-yl)acetamide]"
6,9.32 ×10⁻⁶ cm/s,"CC(=O)NC(Cc1cc(F)cc(F)c1)C(O)CNC1(Cc2cc(C(C)(C)C)on2)CC1 (stereo not drawn) [Example 3.10, N-(4-(1-((5-tert-butylisoxazol-3-yl)methyl)cyclopropylamino)-1-(3,5-difluorophenyl)-3-hydroxybutan-2-yl)acetamide]"
7,3.31 ×10⁻⁶ cm/s,"CC(=O)NC(Cc1cc(F)cc(F)c1)C(O)CNC1(CCCCC(C)(C)C)CC1 (stereo not drawn) [Example 3.11, N-(1-(3,5-difluorophenyl)-4-(1-(5,5-dimethylhexyl)cyclopropylamino)-3-hydroxybutan-2-yl)acetamide]"
8,4.28 ×10⁻⁶ cm/s,"CC(=O)NC(Cc1cc(F)cc(F)c1)C(O)CNC1(C/C=C/CC(C)(C)C)CC1 (stereo not drawn) [Example 3.12, N-(1-(3,5-difluorophenyl)-4-(1-(5,5-dimethylhex-2-enyl)cyclopropylamino)-3-hydroxybutan-2-yl)acetamide]"
9,4.39 ×10⁻⁶ cm/s,"CC(=O)NC(Cc1cc(F)cc(F)c1)C(O)CNC1(CCCn2cccn2)CC1 (stereo not drawn) [Example 3.13, N-(4-(1-(3-(1H-pyrazol-1-yl)propyl)cyclopropylamino)-1-(3,5-difluorophenyl)-3-hydroxybutan-2-yl)acetamide]"
10,3.47 ×10⁻⁶ cm/s,"CC(=O)NC(Cc1cc(F)cc(F)c1)C(O)CNC1(CCCCn2cccn2)CC1 (stereo not drawn) [Example 3.14, N-(4-(1-(4-(1H-pyrazol-1-yl)butyl)cyclopropylamino)-1-(3,5-difluorophenyl)-3-hydroxybutan-2-yl)acetamide]"
11,9.74 ×10⁻⁶ cm/s,"CC(=O)NC(Cc1cc(F)cc(F)c1)C(O)CNC1(CCOCC(C)(C)C)CC1 (stereo not drawn) [Example 3.15, N-(4-(1-(2-(neopentyloxy)ethyl)cyclopropylamino)-1-(3,5-difluorophenyl)-3-hydroxybutan-2-yl)acetamide]"
12,6.15 ×10⁻⁶ cm/s,"CC(=O)NC(Cc1cc(F)cc(F)c1)C(O)CNC1(C(=O)NCC(C)(C)C)CC1 (stereo not drawn) [Example 3.16, 1-(3-acetamido-4-(3,5-difluorophenyl)-2-hydroxybutylamino)-N-neopentylcyclopropanecarboxamide]"
13,4.56 ×10⁻⁶ cm/s,"CC(=O)NC(Cc1cc(F)cc(F)c1)C(O)CNC1(C(=O)N(C)c2ccccc2)CC1 (stereo not drawn) [Example 3.18, 1-(3-acetamido-4-(3,5-difluorophenyl)-2-hydroxybutylamino)-N-methyl-N-phenylcyclopropanecarboxamide]"
14,19.1 ×10⁻⁶ cm/s,"CC(=O)NC(Cc1cc(F)cc(F)c1)C(O)CNC1(Cc2c(F)cccc2F)CC1 (stereo not drawn) [Example 3.19, N-(4-(1-(2,6-difluorobenzyl)cyclopropylamino)-1-(3,5-difluorophenyl)-3-hydroxybutan-2-yl)acetamide]"
15,21.2 ×10⁻⁶ cm/s,"CC(=O)NC(Cc1cc(F)cc(F)c1)C(O)CNC1(Cc2ccccc2F)CC1 (stereo not drawn) [Example 3.20, N-(1-(3,5-difluorophenyl)-4-(1-(2-fluorobenzyl)cyclopropylamino)-3-hydroxybutan-2-yl)acetamide]"

row,Structure (SMILES),"Papp A→B at 2 h, 5 μM"
1,"CC(=O)NC(Cc1cc(F)cc(F)c1)C(O)CNC1(COCCC(C)(C)C)C2CCCC21 (stereo not drawn) [Example 3.9, N-(1-(3,5-difluorophenyl)-4-(6-((3,3-dimethylbutoxy)methyl)bicyclo[3.1.0]hexan-6-ylamino)-3-hydroxybutan-2-yl)acetamide]",4.73 ×10⁻⁶ cm/s

# System: Madin-Darby Canine Kidney (MDCK) cells
# Assay: as above
# Assay type: in vitro ADME
# Conditions: test compound 5 μM, 2 h at 37° C., apical to basolateral
# Experimental: as §1
row,Permeability Forward A > B,Structure (SMILES)
1,11.84 ×10⁻⁶ cm/s,"CC(=O)NC(Cc1cc(F)cc(F)c1)C(O)CNC1(CCOCC(C)(C)C)CC1C (single isomer, unassigned) [Example 3.8, N-(4-(2-methyl-1-(2-(neopentyloxy)ethyl)cyclopropylamino)-1-(3,5-difluorophenyl)-3-hydroxybutan-2-yl)acetamide]"
2,4.56 ×10⁻⁶ cm/s,"CC(=O)NC(Cc1cc(F)cc(F)c1)C(O)CNC1(C(=O)NCCC(C)(C)C)CC1 (stereo not drawn) [Example 3.4, 1-(3-acetamido-4-(3,5-difluorophenyl)-2-hydroxybutylamino)-N-(3,3-dimethylbutyl)cyclopropanecarboxamide]"
